Laboratory results: PubChem BioAssay AID328 (DTP/NCI, 2004)
Values joined by “and” are separate entries in the source; they are usually repeats but may differ in a detail not shown here. Equal values may be shown once. Inconclusive results and toxic doses are left out. How the source made its calls: active means survival T/C of 150% or more; inactive means T/C below 125% in these data.

Test system: BDF1 mice, P388 leukemia ip, median survival T/C
Assay: NCI In Vivo Anticancer Drug Screen. Data for tumor model P388 Leukemia (intraperitoneal) in B6D2F1 (BDF1) mice
Settings: endpoint: median survival time, higher = longer survival
How it was run: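 In tumour-bearing mice, survival after compound treatment is set against the vehicle group and given as a quotient.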

[1] = dose: 100.0 mg/kg/injection, schedule: Q04DX003 (ip), vehicle: Klucel (hydroxypropylcellulose) (HPC)
[2] = dose: 200.0 mg/kg/injection, schedule: Q04DX003 (ip), vehicle: Klucel (hydroxypropylcellulose) (HPC)
[3] = dose: 10.0 mg/kg/injection, schedule: Q01DX009 (ip), vehicle: saline with Tween-80
[4] = dose: 10.0 mg/kg/injection, schedule: Q04DX003 (ip), vehicle: saline with Tween-80
[5] = dose: 20.0 mg/kg/injection, schedule: Q04DX003 (ip), vehicle: saline with Tween-80
[6] = dose: 100.0 mg/kg/injection, schedule: Q01DX009 (ip), vehicle: Klucel (hydroxypropylcellulose) (HPC)
[7] = dose: 200.0 mg/kg/injection, schedule: Q01DX009 (ip), vehicle: Klucel (hydroxypropylcellulose) (HPC)
[8] = dose: 100.0 mg/kg/injection, schedule: Q01DX009 (ip), vehicle: saline with Tween-80
[9] = dose: 50.0 mg/kg/injection, schedule: Q01DX009 (ip), vehicle: saline with Tween-80
[10] = dose: 200.0 mg/kg/injection, schedule: Q01DX009 (ip), vehicle: saline with Tween-80
[11] = dose: 25.0 mg/kg/injection, schedule: Q01DX009 (ip), vehicle: saline with Tween-80
[12] = dose: 100.0 mg/kg/injection, schedule: Q04DX003 (ip), vehicle: saline with Tween-80
[13] = dose: 200.0 mg/kg/injection, schedule: Q04DX003 (ip), vehicle: saline with Tween-80
[14] = dose: 400.0 mg/kg/injection, schedule: Q01DX009 (ip), vehicle: saline with Tween-80
[15] = dose: 400.0 mg/kg/injection, schedule: Q04DX003 (ip), vehicle: saline with Tween-80

Measured: T/C

COC(=O)c1cc(Cl)ccc1OCC(=O)Nc1ccc([N+](=O)[O-])cc1
inactive: [1] 95 % of control and 100 % of control | [2] 104 % of control | dose: 400.0 mg/kg/injection, schedule: Q04DX003 (ip), vehicle: Klucel (hydroxypropylcellulose) (HPC) 87 % of control and 104 % of control

CC(=O)NC(O)C(Cl)(Cl)Cl (configuration not stated)
inactive: dose: 100.0 mg/kg/injection, schedule: Q04DX003 (ip), vehicle: saline sonified 91 % of control | dose: 200.0 mg/kg/injection, schedule: Q04DX003 (ip), vehicle: saline sonified 108 % of control | dose: 400.0 mg/kg/injection, schedule: Q04DX003 (ip), vehicle: saline sonified 100 % of control

O=C1C=CC(=O)N1CCc1ccccc1
inactive: dose: 5.0 mg/kg/injection, schedule: Q01DX009 (ip), vehicle: saline with Tween-80 100 % of control | [3] 92 % of control | [4] 108 % of control | dose: 20.0 mg/kg/injection, schedule: Q01DX009 (ip), vehicle: saline with Tween-80 92 % of control | [5] 108 % of control

CCOC(=S)SCc1nc2ccccc2[nH]1
inactive: dose: 100.0 mg/kg/injection, schedule: Q04DX003 (ip), vehicle: saline 90 % of control | dose: 200.0 mg/kg/injection, schedule: Q04DX003 (ip), vehicle: saline 107 % of control | dose: 400.0 mg/kg/injection, schedule: Q04DX003 (ip), vehicle: saline 105 % of control

CC(=O)OC1C(=O)C(C)(C)CSCC1(C)C (configuration not stated)
inactive: [6] 104 % of control | [7] 95 % of control | dose: 400.0 mg/kg/injection, schedule: Q01DX009 (ip), vehicle: Klucel (hydroxypropylcellulose) (HPC) 104 % of control

C=CCNc1ccc(C)cc1
inactive: dose: 12.5 mg/kg/injection, schedule: Q01DX009 (ip), vehicle: Klucel (hydroxypropylcellulose) (HPC) 110 % of control | dose: 25.0 mg/kg/injection, schedule: Q01DX009 (ip), vehicle: Klucel (hydroxypropylcellulose) (HPC) 116 % of control | dose: 50.0 mg/kg/injection, schedule: Q01DX009 (ip), vehicle: Klucel (hydroxypropylcellulose) (HPC) 116 % of control | [8] 122 % of control

CC(=O)Nc1ccc(S(=O)(=O)N2CC2)cc1
inactive: dose: 25.0 mg/kg/injection, schedule: Q01DX005 (ip), vehicle: saline 98 % of control | dose: 50.0 mg/kg/injection, schedule: Q01DX005 (ip), vehicle: saline 111 % of control | dose: 100.0 mg/kg/injection, schedule: Q01DX005 (ip), vehicle: saline 98 % of control | dose: 200.0 mg/kg/injection, schedule: Q01DX005 (ip), vehicle: saline 111 % of control

CCCCCCC(=O)/C=C/c1cccc(OC)c1
inactive: [9] 90 % of control | [8] 105 % of control | [10] 105 % of control

CCOC(=O)c1c[nH]c(=S)n1C
inactive: [6] 95 % of control | [1] 95 % of control | [7] 104 % of control | [2] 91 % of control

COC1C(O)C(OC2CCC3(C)C(CCC4C3CCC3(C)C(C5=CC(=O)OC5)CCC43O)C2)OC(C)C1OC(C)=O (configuration not stated)
inactive: dose: 9.6 mg/kg/injection, schedule: Q01DX009 (ip), vehicle: saline with Tween-80 115 % of control | dose: 22.0 mg/kg/injection, schedule: Q01DX009 (ip), vehicle: saline with Tween-80 108 % of control | dose: 33.0 mg/kg/injection, schedule: Q01DX009 (ip), vehicle: saline with Tween-80 100 % of control

CCCCC#CC(=O)OC
inactive: [11] 116 % of control | [9] 104 % of control | [8] 100 % of control | [10] 114 % of control

CN(C(N)=O)c1c(O)nc(N)[nH]c1=O
inactive: dose: 12.5 mg/kg/injection, schedule: Q01DX009 (ip), vehicle: water 106 % of control | dose: 25.0 mg/kg/injection, schedule: Q04DX003 (ip), vehicle: water 106 % of control | dose: 50.0 mg/kg/injection, schedule: Q01DX009 (ip), vehicle: water 88 % of control | dose: 50.0 mg/kg/injection, schedule: Q04DX003 (ip), vehicle: water 100 % of control | dose: 100.0 mg/kg/injection, schedule: Q01DX009 (ip), vehicle: water 91 % of control | dose: 100.0 mg/kg/injection, schedule: Q04DX003 (ip), vehicle: water 106 % of control | dose: 200.0 mg/kg/injection, schedule: Q04DX003 (ip), vehicle: water 106 % of control

CCCCCC(=O)O[C@]1(C(C)=O)CC[C@H]2[C@@H]3CCC4=CC(=O)CC[C@]4(C)[C@H]3CC[C@@]21C
inactive: dose: 44.0 mg/kg/injection, schedule: Q01DX009 (ip), vehicle: saline with Tween-80 105 % of control | dose: 66.0 mg/kg/injection, schedule: Q01DX009 (ip), vehicle: saline with Tween-80 110 % of control | [8] 90 % of control | [12] 100 % of control | dose: 150.0 mg/kg/injection, schedule: Q01DX009 (ip), vehicle: saline with Tween-80 100 % of control | [10] 105 % of control | [13] 100 % of control | [14] 100 % of control | [15] 100 % of control

N#C[S-].N#C[S-].[NH-]CC[NH-].[Pt+4]
inactive: [3] 113 % of control | [4] 104 % of control | [5] 100 % of control | dose: 26.4 mg/kg/injection, schedule: Q01DX009 (ip), vehicle: saline with Tween-80 90 % of control | dose: 40.0 mg/kg/injection, schedule: Q01DX009 (ip), vehicle: saline with Tween-80 90 % of control | dose: 40.0 mg/kg/injection, schedule: Q04DX003 (ip), vehicle: saline with Tween-80 86 % of control | dose: 60.0 mg/kg/injection, schedule: Q01DX009 (ip), vehicle: saline with Tween-80 118 % of control

CN(C)C(=O)c1cccc(N)c1
inactive: dose: 100.0 mg/kg/injection, schedule: Q01DX009 (ip), vehicle: saline 100 % of control | dose: 200.0 mg/kg/injection, schedule: Q01DX009 (ip), vehicle: saline 95 % of control | dose: 400.0 mg/kg/injection, schedule: Q01DX009 (ip), vehicle: saline 100 % of control

NC(Cc1ccc(O)cc1)C(=O)OCc1ccccc1 (configuration not stated)
inactive: [12] 104 % of control | [13] 104 % of control | [15] 100 % of control

CC(C)CCCC(C)C1CCC2C3CC=C4CC(OP(=O)(N5CC5)N5CC5)CCC4(C)C3CCC12C (configuration not stated)
inactive: [11] 98 % of control | [9] 100 % of control | [8] 117 % of control | [10] 110 % of control

c1ccc(-c2ncnc3c2Cc2ccccc2-3)cc1
inactive: [8] 104 % of control | [12] 100 % of control | [10] 104 % of control | [13] 100 % of control | [14] 91 % of control | [15] 109 % of control

CC(C)CN(CC(C)C)C(=O)c1ccc(Cl)c(Cl)c1
inactive: [11] 91 % of control | [9] 103 % of control | [8] 107 % of control | [10] 94 % of control
